In US11261190B2, “Dihydropyrimidine compounds and uses thereof in medicine” (SUNSHINE LAKE PHARMA CO., LTD., priority 2017, dated 2022):

Tests used:
[1] = tested on: HBV; experiment: Anti HBV activity in vitro, viral DNA from HepG2.2.15 cells quantified by qPCR; type: cell-based; settings: Hepatitis B virus, qPCR of viral DNA in supernatant, read-out: EC50 against HBV replication
Procedure: Test 1: Test Method of EC50 of Anti HBV
HBV Cell Line and Culture Conditions
HepG2.2.15 (SELLS, PNAS, 1987 and SELLS, JV, 1988) chromosomes have an integrated complete HBV genome, and stably express viral RNA and viral protein. HepG2.2.15 cells can secrete mature HBV particles, HBsAg and HBeAg to medium. HepG2.2.15 cells were cultured in DMEM containing 10% fetal bovine serum, 100 U/mL penicillin, 100 U/mL streptomycin, 1% non essential amino acid, 1 mM sodium pyruvate and 300 µg/mL G418.
Viral particles DNA secreted from HepG2.2.15 cells can be quantified by qPCR, and the effect of the compound on viral replication can be detected.
Test of Anti HBV Activity In Vitro
8000 HepG 2.2.15 cells per well were seeded into a 96-well plate, the plate was cultured at 37° C. and 5% CO2 for 3 days till the cells grew to full wells. Old liquid medium can be removed and replaced with new medium (200 μL) on day 0.
Formulating the compound and treating the cells in the experiment of anti virus: the compound was dissolved in DMSO to a concentration of 30 mM, and then the compound solution was diluted with DMSO to a concentration of […], and then eight dilutions at 4 fold were performed, the highest concentration is 800 μM. The serial diluted compound was added to the above plate at 1 μL per well, the highest final concentration in the experiment is 4 μM (200 fold dilution). TDF (tenofovir dipiroxil fumarate, Selleck, Cat S1400) has a highest concentration of 4 μM as a positive control. 1 μL of DMSO was added in to the positive control well at a final concentration of 0.5%, TDF was added in to the positive control well at a final concentration of 1 μM.
Detection of Viral Genomic DNA by qPCR
Primer: HBV-For-202, […]; HBV-Rev-315, […]. Copies of virus can be calculated using a standard curve plotted by using plasmid containing HBV genome and using SYBR Premix Ex Taq II Takara DRR081S kit and 1 μL cell culture supernatant as a template. EC50 values of the compound on viral replication were calculated by a four parametric nonlinear regression model using Graphpad Prism 5 software to manage concentration—viral copy number.

[2] = Cytotoxicity in HepG2.2.15 cells (CellTiter Glo); type: cell-based; settings: human, highest concentration 150 μM
Procedure: Test 2: Cytotoxicity and Selectivity Index
Methods of Testing Cytotoxicity and Selectivity Index
The serial diluted compound was added to a 384 wells plate at 50 μL HepG2.2.15 cell per well (3000 cells per well), the highest final concentration in the experiment is 150 μM (200 fold dilution). The plate was cultured at 37° C. in an incubator with C02 for 4 days, and cytotoxicity of the compound was detected using CellTiter Glo agent.
The cytotoxicity of the compound was calculated using the following formulate, cytotoxicity (%)=100−(detection value/mean of DMSO control wells values×100). CC50 values were calculated by a four parametric nonlinear regression model using Graphpad Prism 5 software to manage concentration−cytotoxicity (%). […]

| SMILES | EC50 [1] [nM] | CC50 at 4 days [2] [nM] |
| --- | --- | --- |
| COCCN1C[C@@H](N2C[C@@H]3CN(CC4=C(C(=O)OC)[C@H](c5ccc(F)cc5Cl)N=C(c5nccs5)N4)CCN3C2=O)C[C@@H]1C(=O)O [Example 7, (2R,4S)-4-((S)-7-(((R)-6-(2-chloro-4-fluorophenyl)-5-(methoxycarbonyl)-2-(thiazol-2-yl)-3,6-dihydropyrimidin-4-yl)methyl)-3-oxohexahydroimidazo[1,5-a]pyrazin-2(3H)-yl)-1-(2-methoxyethyl)pyrrolidine-2-carboxylic Acid] | 56 | – |
| COC(=O)C1=C(CN2CCN3C(=O)N([C@H](Cc4ccccc4)C(=O)O)CC3C2)NC(c2nccs2)=N[C@H]1c1ccc(F)cc1Cl (stereo partly drawn) [Example 11, (2R)-2-(7-(((R)-6-(2-chloro-4-fluorophenyl)-5-(methoxycarbonyl)-2-(thiazol-2-yl)-3,6-dihydropyrimidin-4-yl)methyl)-3-oxohexahydroimidazo[1,5-a]pyrazin-2(3H)-yl)-3-phenylpropionic Acid] | 32 | – |
| COC(=O)C1=C(CN2CCN3C(=O)N(C(CC(=O)O)c4ccccc4)C[C@@H]3C2)NC(c2nccs2)=N[C@H]1c1ccc(F)cc1Cl (stereo partly drawn) [Example 12, 3-((S)-7-(((R)-6-(2-chloro-4-fluorophenyl)-5-(methoxycarbonyl)-2-(thiazol-2-yl)-3,6-dihydropyrimidin-4-yl)methyl)-3-oxohexahydroimidazo[1,5-a]pyrazin-2(3H)-yl)-3-phenylpropionic Acid] | 37 | – |
| COC(=O)C1=C(CN2CCN3C(=O)N(c4ccc(C(C)(C)C(=O)O)cc4)C[C@@H]3C2)NC(c2nccs2)=N[C@H]1c1ccc(F)cc1Cl [Example 15, 2-(4-((S)-7-(((R)-6-(2-chloro-4-fluorophenyl)-5-(methoxycarbonyl)-2-(thiazol-2-yl)-3,6-dihydropyrimidin-4-yl)methyl)-3-oxohexahydroimidazo[1,5-a]pyrazin-2(3H)-yl)phenyl)-2-methylpropionic Acid] | 5 | > 150000 |
| COC(=O)C1=C(CN2CCN3C(=O)N(c4ccc(C(CC(=O)O)NC(=O)OC(C)(C)C)cc4)C[C@@H]3C2)NC(c2nccs2)=N[C@H]1c1ccc(F)cc1Cl (stereo partly drawn) [Example 16, 3-((tert-butoxycarbonyl)amino)-3-(4-((S)-7-(((R)-6-(2-chloro-4-fluorophenyl)-5-(methoxycarbonyl)-2-(thiazol-2-yl)-3,6-dihydropyrimidin-4-yl)methyl)-3-oxohexahydroimidazo[1,5-a]pyrazin-2 (3H)-yl)phenyl)propanoic Acid] | 14 | > 150000 |
| COC(=O)C1=C(CN2CCN3C(=O)N(c4ccc(CC(C)C(=O)O)cc4)C[C@@H]3C2)NC(c2nccs2)=N[C@H]1c1ccc(F)cc1Cl (stereo partly drawn) [Example 18, 3-(4-((S)-7-(((R)-6-(2-chloro-4-fluorophenyl)-5-(methoxycarbonyl)-2-(thiazol-2-yl)-3,6-dihydropyrimidin-4-yl)methyl)-3-oxohexahydroimidazo[1,5-a]pyrazin-2(3H)-yl)phenyl)-2-methylpropionic Acid] | 4 | > 150000 |
| COC(=O)C1=C(CN2CCN3C(=O)N(c4nc(CCC(=O)O)cs4)C[C@@H]3C2)NC(c2nccs2)=N[C@H]1c1ccc(F)cc1Cl [Example 20, 3-(2-((S)-7-(((R)-6-(2-chloro-4-fluorophenyl)-5-(methoxycarbonyl)-2-(thiazol-2-yl)-3,6-dihydropyrimidin-4-yl)methyl)-3-oxohexahydroimidazo[1,5-a]pyrazin-2(3H)-yl)thiazol-4-yl)propionic Acid] | 5 | > 150000 |
| COC(=O)C1=C(CN2CCN3C(=O)N(Cc4ccc(CC(=O)O)cc4)C[C@@H]3C2)NC(c2nccs2)=N[C@H]1c1ccc(F)cc1Cl [Example 21, 2-(4-(((S)-7-(((R)-6-(2-chloro-4-fluorophenyl)-5-(methoxycarbonyl)-2-(thiazol-2-yl)-3,6-dihydropyrimidin-4-yl)methyl)-3-oxohexahydroimidazo[1,5-a]pyrazin-2(3H)-yl)methyl)phenyl)acetic Acid] | 22 | 110000 |
| CCOC(=O)C1=C(CN2CCN3C(=O)N(c4ccc(CCC(=O)O)cc4)C[C@@H]3C2)NC(c2nccs2)=N[C@H]1c1ccc(F)cc1Br [Example 22, 3-(4-((S)-7-(((R)-6-(2-bromo-4-fluorophenyl)-5-(ethoxycarbonyl)-2-(thiazol-2-yl)-3,6-dihydropyrimidin-4-yl)methyl)-3-oxohexahydroimidazo[1,5-a]pyrazin-2(3H)-yl)phenyl)prop ionic Acid] | 5 | > 150000 |
| COC(=O)C1=C(CN2CCN3C(=O)N(c4ccc(CCC(=O)O)cn4)C[C@@H]3C2)NC(c2nccs2)=N[C@H]1c1ccc(F)cc1Cl [Example 35, 3-(6-((S)-7-(((R)-6-(2-chloro-4-fluorophenyl)-5-(methoxycarbonyl)-2-(thiazol-2-yl)-3,6-dihydropyrimidin-4-yl)methyl)-3-oxohexahydroimidazo[1,5-a]pyrazin-2(3H)-yl)pyridin-3-yl)propionic Acid] | 8 | – |
| COC(=O)C1=C(CN2CCN3C(=O)N(c4cncc(CCC(=O)O)c4)C[C@@H]3C2)NC(c2nccs2)=N[C@H]1c1ccc(F)cc1Cl [Example 36, 3-(5-((S)-7-(((R)-6-(2-chloro-4-fluorophenyl)-5-(methoxycarbonyl)-2-(thiazol-2-yl)-3,6-dihydropyrimidin-4-yl)methyl)-3-oxohexahydroimidazo[1,5-a]pyrazin-2(3H)-yl)pyridin-3-yl)propionic Acid] | – | > 150000 |
| COC[C@@H]1[C@H]2CN(c3ccc(CCC(=O)OC)cc3)C(=O)N2CCN1CC1=C(C(=O)OC)[C@H](c2ccc(F)cc2Cl)N=C(c2nccs2)N1 [Example 50B] | 8 | – |
| COC[C@H]1[C@@H]2CN(c3ccc(CCC(=O)O)cc3)C(=O)N2CCN1CC1=C(C(=O)OC)[C@H](c2ccc(F)cc2Cl)N=C(c2nccs2)N1 [Example 51A] | – | > 150000 |
| CCOC(=O)C1=C(CN2CCN3C(=O)N(c4ccc(/C=C(\C)C(=O)O)cc4)C[C@@H]3C2)NC(c2nccs2)=N[C@H]1c1ccc(F)cc1Br [Example 55, (E)-3-(4-((S)-7-(((R)-6-(2-bromo-4-fluorophenyl)-5-(ethoxycarbonyl)-2-(thiazol-2-yl)-3,6-dihydropyrimidin-4-yl)methyl)-3-oxohexahydroimidazo[1,5-a]pyrazin-2(3H)-yl)phenyl)-2-methylacrylic Acid] | 9 | – |
| CCOC(=O)C1=C(CN2CCN3C(=O)N(c4ccc(/C(C)=C/C(=O)O)cc4)C[C@@H]3C2)NC(c2nccs2)=N[C@H]1c1ccc(F)cc1Br [Example 56, (E)-3-(4-((S)-7-(((R)-6-(2-bromo-4-fluorophenyl)-5-(ethoxycarbonyl)-2-(thiazol-2-yl)-3,6-dihydropyrimidin-4-yl)methyl)-3-oxohexahydroimidazo[1,5-a]pyrazin-2(3H)-yl)phenyl)-2-butenoic Acid] | 12 | – |
| CCOC(=O)C1=C(CN2CCN3C(=O)N(c4ccc(CCC(=O)O)cc4)C[C@@H]3[C@H]2COC)NC(c2nccs2)=N[C@H]1c1ccc(F)cc1Br [Example 57, 3-(4-((8S,8aR)-7-(((R)-6-(2-bromo-4-fluorophenyl)-5-(ethoxycarbonyl)-2-(thiazol-2-yl)-3,6-dihydropyrimidin-4-yl)methyl)-8-(methoxymethyl)-3-oxohexahydroimidazo[1,5-a]pyrazin-2(3H)-yl)phenyl)propionic Acid] | 12 | – |
| COC(=O)CCc1ccc(N2C[C@@H]3[C@@H](CO)N(CC4=C(C(=O)OC)[C@H](c5ccc(F)cc5Cl)N=C(c5nccs5)N4)CCN3C2=O)cc1 [Example 58B] | 14 | – |
| COC(=O)C1=C(CN2CCN3C(=O)N(c4ccc(CCC(=O)O)cc4)C[C@H]3[C@@H]2CO)NC(c2nccs2)=N[C@H]1c1ccc(F)cc1Cl [Example 59A] | – | > 150000 |
| COC[C@@H]1[C@H]2CN(c3ccc(C(C)(C)C(=O)OC)cc3)C(=O)N2CCN1CC1=C(C(=O)OC)[C@H](c2ccc(F)cc2Cl)N=C(c2nccs2)N1 [Example 60B] | 4 | – |
| COC[C@@H]1[C@H]2CN(c3ccc(C(C)(C)C(=O)O)cc3)C(=O)N2CCN1CC1=C(C(=O)OC)[C@H](c2ccc(F)cc2Cl)N=C(c2nccs2)N1 [Example 61B] | 5 | – |
